Results from ChEMBL document CHEMBL2163268, “Structure-based design of a novel series of potent, selective inhibitors of the class I phosphatidylinositol 3-kinases” (J Med Chem, 2012).

Key:
[1] = Oral bioavailability in rat at 2 mg/kg; assay type: ADME, organism-based; conditions: in vivo
[2] = in vivo; conditions: rat, iv, 1 mg/kg
[3] = in vivo; conditions: rat, iv, 1 mg/kg; remark: listed apart in the source
[4] = in vivo; conditions: rat, plasma, po, 2 mg/kg
[5] = in vivo; conditions: rat, iv, 1 mg/kg; remark: listed apart in the source
[6] = in vitro; conditions: rat, liver microsomes
[7] = biological target: T1, Phosphatidylinositol 4,5-bisphosphate 3-kinase catalytic subunit delta isoform (Homo sapiens, UniProt O00329); experiment: biochemical
T1 sequence (O00329 whole entry): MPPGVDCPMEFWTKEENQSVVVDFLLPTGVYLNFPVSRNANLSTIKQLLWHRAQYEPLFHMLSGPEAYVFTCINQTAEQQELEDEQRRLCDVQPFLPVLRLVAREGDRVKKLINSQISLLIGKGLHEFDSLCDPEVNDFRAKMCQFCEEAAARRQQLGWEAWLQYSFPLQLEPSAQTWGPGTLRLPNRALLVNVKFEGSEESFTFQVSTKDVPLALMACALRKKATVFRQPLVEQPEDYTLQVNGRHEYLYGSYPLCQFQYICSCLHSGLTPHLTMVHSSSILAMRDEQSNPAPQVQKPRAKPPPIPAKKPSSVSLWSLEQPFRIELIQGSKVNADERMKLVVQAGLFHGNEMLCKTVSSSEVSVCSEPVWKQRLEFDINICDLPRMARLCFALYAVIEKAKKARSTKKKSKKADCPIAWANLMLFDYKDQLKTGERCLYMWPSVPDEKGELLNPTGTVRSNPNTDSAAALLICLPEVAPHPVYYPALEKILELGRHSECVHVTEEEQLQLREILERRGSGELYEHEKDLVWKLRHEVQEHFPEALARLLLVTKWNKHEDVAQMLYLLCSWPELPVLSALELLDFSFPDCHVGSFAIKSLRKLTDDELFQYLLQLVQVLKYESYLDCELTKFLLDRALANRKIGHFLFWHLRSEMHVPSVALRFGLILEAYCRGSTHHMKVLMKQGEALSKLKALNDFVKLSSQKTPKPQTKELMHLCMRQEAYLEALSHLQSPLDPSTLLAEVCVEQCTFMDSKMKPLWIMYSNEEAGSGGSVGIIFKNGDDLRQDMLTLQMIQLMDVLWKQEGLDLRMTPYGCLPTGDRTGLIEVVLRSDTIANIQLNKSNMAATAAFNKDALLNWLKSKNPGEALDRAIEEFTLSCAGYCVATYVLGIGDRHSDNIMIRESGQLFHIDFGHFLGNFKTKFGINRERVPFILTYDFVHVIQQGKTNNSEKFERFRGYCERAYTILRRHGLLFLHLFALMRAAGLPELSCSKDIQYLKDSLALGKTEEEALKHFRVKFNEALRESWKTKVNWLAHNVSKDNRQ

[8] = biological target: Phosphatidylinositol 4,5-bisphosphate 3-kinase catalytic subunit gamma isoform (Homo sapiens, UniProt P48736); experiment: biochemical
Chain of Phosphatidylinositol 4,5-bisphosphate 3-kinase catalytic subunit gamma isoform (P48736 whole entry, canonical isoform): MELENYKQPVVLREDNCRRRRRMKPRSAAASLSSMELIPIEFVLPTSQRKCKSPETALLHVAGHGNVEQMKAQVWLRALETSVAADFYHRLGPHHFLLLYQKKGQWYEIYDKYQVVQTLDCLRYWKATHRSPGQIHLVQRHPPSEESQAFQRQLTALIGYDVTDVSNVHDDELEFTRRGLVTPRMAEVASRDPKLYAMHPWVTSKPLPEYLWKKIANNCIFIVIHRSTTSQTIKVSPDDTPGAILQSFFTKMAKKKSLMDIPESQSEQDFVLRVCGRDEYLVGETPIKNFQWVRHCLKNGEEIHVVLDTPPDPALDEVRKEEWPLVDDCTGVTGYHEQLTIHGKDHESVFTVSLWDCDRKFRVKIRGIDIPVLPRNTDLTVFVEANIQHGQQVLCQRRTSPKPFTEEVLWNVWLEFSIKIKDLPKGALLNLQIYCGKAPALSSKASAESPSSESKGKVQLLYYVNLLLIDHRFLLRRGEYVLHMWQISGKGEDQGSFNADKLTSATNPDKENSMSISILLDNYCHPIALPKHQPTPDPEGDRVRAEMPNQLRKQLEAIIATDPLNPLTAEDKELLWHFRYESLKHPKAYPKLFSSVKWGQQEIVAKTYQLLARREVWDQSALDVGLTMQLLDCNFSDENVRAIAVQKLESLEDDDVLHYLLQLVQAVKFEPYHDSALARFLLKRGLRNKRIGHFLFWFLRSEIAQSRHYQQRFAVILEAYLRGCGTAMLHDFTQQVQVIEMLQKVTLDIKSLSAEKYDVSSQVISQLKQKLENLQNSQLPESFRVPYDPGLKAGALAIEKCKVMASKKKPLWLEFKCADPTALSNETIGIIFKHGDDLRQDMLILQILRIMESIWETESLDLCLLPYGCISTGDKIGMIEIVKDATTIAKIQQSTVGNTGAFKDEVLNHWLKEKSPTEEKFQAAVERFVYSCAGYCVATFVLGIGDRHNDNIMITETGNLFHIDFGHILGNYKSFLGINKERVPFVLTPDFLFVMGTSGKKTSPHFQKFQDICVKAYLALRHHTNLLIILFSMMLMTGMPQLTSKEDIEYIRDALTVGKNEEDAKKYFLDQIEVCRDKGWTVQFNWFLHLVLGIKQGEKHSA

[9] = biological target: Phosphatidylinositol 4,5-bisphosphate 3-kinase catalytic subunit beta isoform (Homo sapiens, UniProt P42338); experiment: biochemical
Chain of Phosphatidylinositol 4,5-bisphosphate 3-kinase catalytic subunit beta isoform (P42338 whole entry, canonical isoform): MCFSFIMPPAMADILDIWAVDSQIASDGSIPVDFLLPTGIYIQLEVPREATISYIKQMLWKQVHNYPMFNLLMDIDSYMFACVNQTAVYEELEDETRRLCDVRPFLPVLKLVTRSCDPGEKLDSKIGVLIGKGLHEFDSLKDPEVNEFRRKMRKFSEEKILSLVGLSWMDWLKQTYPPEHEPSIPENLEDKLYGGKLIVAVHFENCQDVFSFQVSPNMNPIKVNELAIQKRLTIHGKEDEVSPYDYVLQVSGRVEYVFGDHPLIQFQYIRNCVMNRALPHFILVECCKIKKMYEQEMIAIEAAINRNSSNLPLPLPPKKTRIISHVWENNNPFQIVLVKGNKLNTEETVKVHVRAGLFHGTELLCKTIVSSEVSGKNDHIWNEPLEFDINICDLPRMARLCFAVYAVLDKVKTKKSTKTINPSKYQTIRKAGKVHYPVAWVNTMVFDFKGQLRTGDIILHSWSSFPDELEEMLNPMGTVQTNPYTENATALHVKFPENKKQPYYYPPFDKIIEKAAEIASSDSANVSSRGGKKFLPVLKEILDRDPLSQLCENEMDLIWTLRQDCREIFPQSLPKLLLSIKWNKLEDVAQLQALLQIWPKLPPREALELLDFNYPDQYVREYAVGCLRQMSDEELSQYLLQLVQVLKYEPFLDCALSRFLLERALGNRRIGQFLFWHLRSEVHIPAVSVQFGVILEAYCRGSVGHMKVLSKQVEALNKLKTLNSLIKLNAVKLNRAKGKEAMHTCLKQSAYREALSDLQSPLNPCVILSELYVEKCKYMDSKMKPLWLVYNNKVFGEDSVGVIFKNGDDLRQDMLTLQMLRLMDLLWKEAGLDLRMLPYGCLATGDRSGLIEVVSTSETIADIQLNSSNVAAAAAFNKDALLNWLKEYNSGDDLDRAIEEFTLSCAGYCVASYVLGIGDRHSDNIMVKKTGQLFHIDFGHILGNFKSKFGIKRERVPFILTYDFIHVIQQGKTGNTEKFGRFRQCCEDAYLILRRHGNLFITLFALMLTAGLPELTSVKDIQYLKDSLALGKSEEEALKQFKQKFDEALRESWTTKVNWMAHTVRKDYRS

[10] = biological target: Serine/threonine-protein kinase B-raf (Homo sapiens, UniProt P15056, V600E)
Chain of Serine/threonine-protein kinase B-raf (P15056 2-766 V600E limits assumed): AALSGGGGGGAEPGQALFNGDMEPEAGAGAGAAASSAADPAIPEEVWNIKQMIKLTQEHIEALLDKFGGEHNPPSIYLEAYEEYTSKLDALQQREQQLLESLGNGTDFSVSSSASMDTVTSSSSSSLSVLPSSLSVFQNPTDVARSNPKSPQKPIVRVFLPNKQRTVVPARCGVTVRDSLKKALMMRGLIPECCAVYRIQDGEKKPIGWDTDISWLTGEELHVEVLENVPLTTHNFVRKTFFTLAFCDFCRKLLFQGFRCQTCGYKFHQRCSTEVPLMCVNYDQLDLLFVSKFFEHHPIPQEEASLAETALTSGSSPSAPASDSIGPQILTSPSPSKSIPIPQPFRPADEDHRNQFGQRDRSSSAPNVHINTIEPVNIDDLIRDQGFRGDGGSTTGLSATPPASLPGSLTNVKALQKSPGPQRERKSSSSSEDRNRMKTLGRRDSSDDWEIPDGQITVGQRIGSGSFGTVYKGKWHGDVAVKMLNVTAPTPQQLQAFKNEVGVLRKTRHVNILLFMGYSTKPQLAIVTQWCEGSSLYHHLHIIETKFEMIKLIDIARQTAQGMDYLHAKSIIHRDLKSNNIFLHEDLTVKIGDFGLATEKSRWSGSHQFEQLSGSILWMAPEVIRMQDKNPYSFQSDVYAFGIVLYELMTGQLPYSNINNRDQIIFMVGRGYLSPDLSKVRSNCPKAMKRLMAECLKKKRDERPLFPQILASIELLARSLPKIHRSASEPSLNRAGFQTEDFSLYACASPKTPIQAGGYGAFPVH

[11] = biological target: Serine/threonine-protein kinase mTOR (Homo sapiens, UniProt P42345)
[12] = biological target: Phosphatidylinositol 4,5-bisphosphate 3-kinase catalytic subunit alpha isoform (Homo sapiens, UniProt P42336); experiment: biochemical
Chain of Phosphatidylinositol 4,5-bisphosphate 3-kinase catalytic subunit alpha isoform (P42336 whole entry, canonical isoform): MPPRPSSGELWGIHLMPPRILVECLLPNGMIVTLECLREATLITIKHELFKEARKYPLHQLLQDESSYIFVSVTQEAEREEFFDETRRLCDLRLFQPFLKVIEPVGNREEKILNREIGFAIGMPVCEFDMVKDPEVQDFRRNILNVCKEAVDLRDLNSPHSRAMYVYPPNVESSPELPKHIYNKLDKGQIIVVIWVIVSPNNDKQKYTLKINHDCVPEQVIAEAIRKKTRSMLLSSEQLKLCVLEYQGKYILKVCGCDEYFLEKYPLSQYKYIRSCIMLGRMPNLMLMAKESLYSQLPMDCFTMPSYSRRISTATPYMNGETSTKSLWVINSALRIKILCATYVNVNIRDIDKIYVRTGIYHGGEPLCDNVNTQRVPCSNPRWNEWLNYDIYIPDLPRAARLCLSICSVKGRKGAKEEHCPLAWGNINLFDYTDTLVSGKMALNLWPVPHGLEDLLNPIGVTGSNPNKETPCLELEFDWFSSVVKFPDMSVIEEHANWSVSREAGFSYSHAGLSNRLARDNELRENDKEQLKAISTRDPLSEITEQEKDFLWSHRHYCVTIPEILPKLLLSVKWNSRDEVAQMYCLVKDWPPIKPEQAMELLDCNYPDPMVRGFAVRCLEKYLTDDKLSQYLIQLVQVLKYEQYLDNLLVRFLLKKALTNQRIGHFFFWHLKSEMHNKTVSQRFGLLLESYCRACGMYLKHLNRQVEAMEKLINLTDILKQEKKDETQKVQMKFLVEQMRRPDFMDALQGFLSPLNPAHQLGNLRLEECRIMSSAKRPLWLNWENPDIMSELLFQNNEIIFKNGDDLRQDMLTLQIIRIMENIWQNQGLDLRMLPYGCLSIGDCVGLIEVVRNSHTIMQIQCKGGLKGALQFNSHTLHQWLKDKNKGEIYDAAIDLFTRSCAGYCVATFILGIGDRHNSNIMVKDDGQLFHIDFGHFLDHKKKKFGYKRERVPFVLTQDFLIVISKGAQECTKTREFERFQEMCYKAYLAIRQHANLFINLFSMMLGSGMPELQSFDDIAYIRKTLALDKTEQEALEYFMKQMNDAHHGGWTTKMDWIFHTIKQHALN

[13] = biological target: Phosphatidylinositol 3-kinase catalytic subunit type 3 (Homo sapiens, UniProt Q8NEB9)
Chain of Phosphatidylinositol 3-kinase catalytic subunit type 3 (Q8NEB9 whole entry): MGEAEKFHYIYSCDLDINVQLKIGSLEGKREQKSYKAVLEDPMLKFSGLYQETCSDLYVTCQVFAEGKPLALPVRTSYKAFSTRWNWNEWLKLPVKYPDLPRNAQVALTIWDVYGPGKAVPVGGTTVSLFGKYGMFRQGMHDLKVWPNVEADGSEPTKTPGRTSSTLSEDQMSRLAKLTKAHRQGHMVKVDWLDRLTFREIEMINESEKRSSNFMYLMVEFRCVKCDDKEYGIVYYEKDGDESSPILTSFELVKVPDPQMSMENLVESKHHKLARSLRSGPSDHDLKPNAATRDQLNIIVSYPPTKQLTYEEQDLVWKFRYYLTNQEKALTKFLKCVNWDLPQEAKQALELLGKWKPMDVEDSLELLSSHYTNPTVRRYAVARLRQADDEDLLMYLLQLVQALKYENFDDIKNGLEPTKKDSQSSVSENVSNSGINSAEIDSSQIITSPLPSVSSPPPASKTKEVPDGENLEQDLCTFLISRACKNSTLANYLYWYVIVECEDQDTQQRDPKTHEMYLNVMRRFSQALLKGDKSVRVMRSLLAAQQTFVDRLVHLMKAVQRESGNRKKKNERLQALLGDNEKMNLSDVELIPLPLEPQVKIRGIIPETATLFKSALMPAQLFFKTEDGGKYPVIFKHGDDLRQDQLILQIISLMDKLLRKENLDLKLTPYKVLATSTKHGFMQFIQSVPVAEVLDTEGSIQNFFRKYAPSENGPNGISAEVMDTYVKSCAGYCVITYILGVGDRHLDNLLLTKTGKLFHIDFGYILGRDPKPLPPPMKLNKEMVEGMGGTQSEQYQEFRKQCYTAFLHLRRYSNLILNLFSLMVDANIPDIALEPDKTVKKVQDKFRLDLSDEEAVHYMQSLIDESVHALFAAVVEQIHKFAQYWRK

Row | SMILES | bioavailability [1] | MRT [2] | clearance [3] | AUC [4] | Vd [5] | microsomal CLint [6] | Ki [7] | Ki [8] | Ki [9] | IC50 [10] | IC50 [11] | Ki [12] | IC50 [13]
1 | COc1ccc(Nc2ncc(Cc3ccc(S(C)(=O)=O)cc3)cc2-c2nc(C)nc(N)n2)cn1 | 2% | 1.2 h | 30 mL/min/kg | 0.04 µM·h | 2.1 L/kg | 59 µL/min/mg | 1 nM | 7 nM |  |  |  |  | 
2 | COc1ccc(Nc2ncc(CN3CCC(S(C)(=O)=O)CC3)cc2-c2nc(C)nc(N)n2)cn1 | 18% | 1.3 h | 41.7 mL/min/kg | 0.33 µM·h | 2.9 L/kg | 20 µL/min/mg | 3 nM | 9 nM | 5 nM |  |  |  | 
3 | COc1ccc(Nc2ncc(CC3CCN(S(C)(=O)=O)CC3)cc2-c2nc(C)nc(N)n2)cn1 | 3% | 1 h | 46.7 mL/min/kg | 0.04 µM·h | 2.7 L/kg | 111 µL/min/mg | 4 nM | 8 nM | 15 nM |  |  |  | 
4 | Cc1nc(N)c(F)c(-c2cccnc2Nc2cccc3[nH]ncc23)n1 |  |  |  |  |  | 71 µL/min/mg | 810 nM | 330 nM | 990 nM | > 1000 nM | > 10000 nM | 930 nM | 
5 | Cc1nc(-c2cccnc2Nc2cccc3n[nH]cc23)c2c[nH]nc2n1 |  |  |  |  |  | 56 µL/min/mg | 5000 nM | 450 nM | 2300 nM | > 1000 nM | > 10000 nM | 1700 nM | 
6 | COc1ccc(N(C)c2ncccc2-c2nc(C)nc(N)n2)cn1 |  |  |  |  |  | 41 µL/min/mg | > 10000 nM | > 10000 nM | > 10000 nM | > 1000 nM | > 10000 nM | > 10000 nM | 
7 | Cc1nc(N)nc(-c2cccnc2Nc2cccc3[nH]ccc23)n1 |  |  |  |  |  | 110 µL/min/mg | 25 nM | 45 nM | 9 nM | > 1000 nM |  |  | > 9000 nM

Second part, led by results:

Row | bioavailability [1] | MRT [2] | clearance [3] | AUC [4] | Vd [5] | microsomal CLint [6] | Ki [7] | Ki [8] | Ki [9] | IC50 [10] | IC50 [11] | Ki [12] | SMILES | IC50 [13]
8 |  |  |  |  |  | 76 µL/min/mg | > 10000 nM | 3600 nM | 1300 nM | > 1000 nM | > 10000 nM | 3200 nM | Nc1cc(-c2cccnc2Nc2cccc3[nH]ncc23)nc(C(F)(F)F)n1 | 
9 |  |  |  |  |  | 218 µL/min/mg | > 10000 nM | > 10000 nM | > 10000 nM | > 1000 nM | > 10000 nM | > 10000 nM | Cc1cc(-c2cccnc2Oc2cccc3[nH]ccc23)nc(N)n1 | 
10 |  |  |  |  |  | 118 µL/min/mg | 6000 nM | 2600 nM | > 10000 nM | > 1000 nM | > 10000 nM | 4900 nM | Cc1cc(-c2cccnc2Nc2cccc(O)c2)nc(N)n1 | 
11 |  |  |  |  |  | 218 µL/min/mg | 3 nM | 4 nM | 4 nM | > 1000 nM | 7 nM | 2 nM | Cc1ncnc(-n2c(Nc3cccc(O)c3)nc3ccccc32)n1 | 
12 |  |  |  |  |  | 65 µL/min/mg | 130 nM | 88 nM | 51 nM | > 1000 nM | > 10000 nM | 92 nM | Cc1nc(N)nc(-c2cccnc2Nc2cccc3[nH]ncc23)n1 | > 9000 nM
13 |  |  |  |  |  | 75 µL/min/mg | 370 nM | 91 nM | 110 nM | > 1000 nM | > 10000 nM | 150 nM | Cc1nc(N)cc(-c2cccnc2Nc2cccc3[nH]ncc23)n1 | 
